Data as given in patent publication US20250235432A1, “METHODS OF TREATING CANCERS” (Foghorn Therapeutics Inc., priority 2018, published 2025).

Assays:
Type in all cases: cell-based
[1] = system: parental MP41 and PKCi-resistant MP41 uveal melanoma cells; experiment: 7-day growth inhibition assay, parental and PKC inhibitor-resistant cells
Method: Procedure: Uveal melanoma cell lines (92-1, MP41, MP38, MP46), prostate cancer cell lines (LNCAP), lung cancer cell lines (NClH1299), and immortalized embryonic kidney lines (HEK293T) were plated into 96 well plates with growth media (see Table 1). […] Cells were incubated at 37° C. for 3 days. After 3 days of treatment, the media was removed from the cells, and 30 microliters of TrypLE (Gibco) was added to cells for 10 minutes. Cells were detached from the plates and resuspended with the addition of 170 microliters of growth media. Cells from two DMSO-treated control wells were counted, and the initial number of cells plated at the start of the experiment, were re-plated into fresh-compound containing plates for an additional four days at 37° C. At day 7, cells were harvested as described above.
On day 3 and day 7, relative cell growth was measured by the addition of Cell-titer glo (Promega), and luminescence was measured on an Envision plate reader (Perkin Elmer).
Procedure: MP41 uveal melanoma cells were made resistant to the PKC inhibitor (LXS196; MedChemExpress), by long-term culture in growth media (see Table 1) containing increasing concentrations of the compound, up to 1 micromolar. After 3 months, sensitivity of the parental MP41 cells and the PKC inhibitor (PKCi)-resistant cells to the PKC inhibitor (LXS196) or the BRG1/BRM ATPase inhibitor (compound 18) was tested in a 7-day growth inhibition assay as described above in Example 2.

[2] = system: uveal melanoma cell lines 92-1 or MP41; experiment: 3-day growth inhibition of uveal melanoma cell lines, comparison to clinical PKC and MEK inhibitors; settings: for onset of growth inhibition compared to the clinical PKC and MEK inhibitors: 92-1 or MP41; for growth inhibition of uveal melanoma cells compared to the clinical PKC and MEK inhibitors (LXS196, Selumetinib): 92-1 or MP41, 3 days, 0 to 10 micromolar
Method: Procedure: Uveal melanoma cell lines, 92-1 or MP41, were plated in 96 well plates in the presence of growth media (see Table 1). […] Cells were incubated at 37° C. for 3 days. After 3 days of treatment, cell growth was measured with Cell-titer glow (Promega), and luminescence was read on an Envision plate reader (Perkin Elmer).
Procedure: Uveal melanoma cell lines, 92-1 or MP41, were plated in 96 well plates in the presence of growth media (see Table 1). BAF ATPase inhibitor (compound 18), PKC inhibitor (LXS196; MedChemExpress), and MEK inhibitor (Selumetinib; Selleck Chemicals) were dissolved in DMSO and added to the cells in a concentration gradient from 0 to 10 micromolar at the time of plating. Cells were incubated at 37° C. for 3 days. After three days of treatment, cell growth was measured with Cell-titer glow (Promega), and luminescence was read on an Envision plate reader (Perkin Elmer).

[3] = system: uveal melanoma cell lines (92-1, MP41, MP38, MP46); experiment: 3-day growth inhibition of uveal melanoma and non-small cell lung cancer cell lines; settings: 3 days, 0 to 10 micromolar, FIG. 5
Method: Procedure: Uveal melanoma cell lines (92-1, MP41, MP38, MP46) and non-small cell lung cancer cells (NCl-H1299) were plated into 96 well plates with growth media (see Table 1). BRG1/BRM ATPase inhibitor, compound 18, was dissolved in DMSO and added to the cells in a concentration gradient from 0 to 10 micromolar at the time of plating. Cells were incubated at 37° C. for 3 days. After three days of treatment, cell growth was measured with Cell-titer glow (Promega), and luminescence was read on an Envision plate reader (Perkin Elmer).

SMILES	tolerance of PKCi-resistant cells relative to the parental MP41 cell line ([1]; 7-day assay, FIG. 7A)	onset of growth inhibition compared to the clinical PKC and MEK inhibitors [2]	growth inhibition of uveal melanoma cells compared to the clinical PKC and MEK inhibitors (LXS196, Selumetinib) [2]	sensitivity of PKCi-resistant cells relative to parental MP41 cells ([1]; 7-day assay, FIG. 7B)	growth inhibition of both the PKCi-resistant and parental cell lines ([1]; MP41, 7-day assay, FIG. 7B)	growth inhibition in the uveal melanoma cell lines [3]
CC1(N)CCN(c2cccnc2NC(=O)c2nc(-c3ncccc3C(F)(F)F)cnc2N)CC1 [LXS196, reference compound]	could tolerate growth at higher concentrations					
CSCC[C@H](NC(=O)c1ccc(N)cc1)C(=O)Nc1nc(-c2cccc(-c3ccncc3)c2)cs1 [compound 17, 4-amino-N-[(1S)-3-methylsulfanyl-1-[[4-[3-(4-pyridyl)phenyl]thiazol-2-yl]carbamoyl]propyl]benzamide]		faster onset of inhibition	comparable growth inhibition			
CSCC[C@H](NC(=O)c1ccn(S(C)(=O)=O)c1)C(=O)Nc1nc(-c2cccc(-c3ccncc3)c2)cs1 [compound 18, (S)-1-(methylsulfonyl)-N-(4-(methylthio)-1-oxo-1-((4-(3-(pyridin-4-yl)phenyl)thiazol-2-yl)amino)butan-2-yl)-1H-pyrrole-3-carboxamide]		faster onset of growth inhibition	more potent effects on growth inhibition	more sensitive	strong growth inhibition	potent growth inhibition
